In one data set the test system is male Long-Evans rats. The data set can be described thus: Feeding and body mass after single third cerebral ventricle (ICV) injection. The class given is in vivo, rat. The following applies: single 1.0 nmol ICV dose; for Initial (24 hour) feeding response, in words: first 24 hours.
The target of another data set is T1, hMC4R (Homo sapiens, UniProt P32245).
T1 construct: expressed in transfected cells; host or cells: HEK-293
The following applies: cited from earlier work.

The conditions of data set [1]: cited from earlier work; for Feeding response compared with AgRP: literature.
Data set [2] concerns the target T2, hMC3R (Homo sapiens, UniProt P41968).
T2 construct: expressed in transfected cells; host or cells: HEK-293
Particulars: cited from earlier work.

Data set [3] addresses T2, hMC3R. Particulars: cAMP, NDP-MSH stimulated; data adapted from the literature (footnote c); read-out: EC50, MC3R; cited from earlier work.
The conditions of data set [4]: cooperative folding, Jackson et al., 2002; cited from earlier work.

Bridge positions count the residues as written; N and C are the ends. Ends that are not written are not given here. Peptide text beside a SMILES is read from it.

T2 sequence (P41968 whole entry): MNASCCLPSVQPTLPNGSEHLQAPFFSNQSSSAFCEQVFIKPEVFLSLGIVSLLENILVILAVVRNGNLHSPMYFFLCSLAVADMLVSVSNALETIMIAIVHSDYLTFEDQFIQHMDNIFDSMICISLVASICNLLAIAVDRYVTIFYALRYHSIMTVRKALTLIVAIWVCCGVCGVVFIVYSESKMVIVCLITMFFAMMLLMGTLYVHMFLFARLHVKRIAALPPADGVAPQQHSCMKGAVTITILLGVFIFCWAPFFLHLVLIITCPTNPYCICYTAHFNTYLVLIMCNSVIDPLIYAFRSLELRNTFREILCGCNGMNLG
T1 sequence (P32245 whole entry): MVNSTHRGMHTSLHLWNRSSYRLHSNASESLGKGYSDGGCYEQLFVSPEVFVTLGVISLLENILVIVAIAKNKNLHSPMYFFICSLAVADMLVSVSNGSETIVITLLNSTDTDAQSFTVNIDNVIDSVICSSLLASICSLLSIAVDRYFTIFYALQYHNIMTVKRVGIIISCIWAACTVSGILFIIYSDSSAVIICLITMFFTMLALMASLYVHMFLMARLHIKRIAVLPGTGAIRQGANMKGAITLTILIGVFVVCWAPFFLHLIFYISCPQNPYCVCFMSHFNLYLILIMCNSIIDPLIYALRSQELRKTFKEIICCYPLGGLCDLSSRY

As for “mature wild type human Agouti-Related Protein, SSRR-CVRLHESCLGQQVPCCDPCATCYCRFFNAFCYC-RKLGTAMNPCSRT (SSRRCVRLHESCLGQQVPCCDPCATCYCRFFNAFCYCRKLGTAMNPCSRT; not fully specified (bridges); ends and bridges not checked; listed as Homo sapiens) [AgRP(83-132)]”, in the data set with male Long-Evans rats, the “Feeding increase over control at three or four days after injection” value is reported as “about 30%” and the “Initial (24 hour) feeding response, in words” value is on record as “the most potent”. For the same compound, in the data set on male Long-Evans rats (listed as AgRP), the “Initial (24 hour) feeding response, in words” value was “greatly stimulate feeding”. In addition, in the data set with male Long-Evans rats (first 24 hr), the “Feeding increase over control after one day” value is listed as roughly 80%. For the same compound, the Ki with hMC4R (displacement of 125I-NDP-MSH, data adapted from the literature (footnotes a, d), read-out: Ki, MC4R) was 11 ± 0.7 nM.

Turning to SHU9119, in data set [1], the “Feeding response compared with AgRP” value was “long-term response similar to AgRP”.

Take MTII: the “Feeding after injection following AgRP administration” value in data set [1] (injected after AgRP) was “transiently reduces feeding”.

For “truncated AgRP lacking the N-terminal SSRR segment: CVRLHESCLGQQVPCCDPCATCYCRFFNAFCYC-RKLGTAMNPCSRT [AgRP(87-132)]”, the Ki with hMC3R [2] (displacement of 125I-NDP-MSH, data adapted from the literature (footnote a), read-out: Ki, MC3R) was 5.2 ± 0.7 nM. Besides, in the data set with hMC3R [3], the EC50 was 8.9 ± 0.2 nM.

Take `CC(=O)N[C@H]1CSSC[C@@H]2NC(=O)[C@@H]3CSSC[C@@H](C(=O)N[C@@H](CCCNC(=N)N)C(N)=O)NC(=O)[C@H](Cc4ccc(O)cc4)NC(=O)[C@@H]4CSSC[C@H](NC(=O)[C@H](Cc5ccc(O)cc5)NC(=O)[C@H](CSSC[C@H](NC(=O)[C@H](CO)NC(=O)[C@H](CCC(=O)O)NC(=O)[C@H](Cc5c[nH]cn5)NC(=O)[C@H](CC(C)C)NC(=O)[C@H](CCCNC(=N)N)NC(=O)[C@H](C(C)C)NC1=O)C(=O)N[C@@H](CC(C)C)C(=O)NCC(=O)N[C@@H](CCC(N)=O)C(=O)N[C@@H](CCC(N)=O)C(=O)N[C@@H](C(C)C)C(=O)N1CCC[C@H]1C(=O)N3)NC(=O)[C@H]([C@@H](C)O)NC(=O)[C@H](C)NC(=O)[C@H](C)NC(=O)[C@@H]1CCCN1C(=O)[C@H](CC(=O)O)NC2=O)C(=O)N[C@@H](CCCNC(=N)N)C(=O)N[C@@H](Cc1ccccc1)C(=O)N[C@@H](Cc1ccccc1)C(=O)N[C@@H](CC(N)=O)C(=O)N[C@@H](C)C(=O)N[C@@H](Cc1ccccc1)C(=O)N4` [AgRP(87-120)] (Ac-CVRLHESCLGQQVPCCDPAATCYCRFFNAFCYCR-NH2; disulfide 1-16, 8-22, 15-33, 24-31 (inferred); C-terminus assumed): the “Dissociation constant at Mc3R compared with mature AgRP(83-132)” value on hMC3R [2] (previous study) was “equivalent to mature AgRP(83-132)”. Also, the “Dissociation constant at Mc4R compared with mature AgRP(83-132)” value on hMC4R (previous study) is recorded as “equivalent to mature AgRP(83-132)”. Further, in data set [4], the Folding stability result is “indistinguishable from AgRP(83-132)”.

In the case of neuropeptide Y [neuropeptide Y (NPY)], the “Feeding response compared with AgRP” value in data set [1] is listed as “feeding returns to baseline after 24 hours”.

The values above are taken from patent US9394343B2, “Appetite stimulating protein” (The Regents of the University of California, priority 2011, dated 2016).
